Laboratory results: patent US20030144350A1, “Fat accumulation-modulation compounds” (AdipoGenix, Inc., priority 2001, published 2003)
Read-outs that look alike come from different tables or passages of the source.

Columns and labels:
[1] = mice, single injections; cited from earlier work
[2] = tested on: primary human subcutaneous preadipocytes; experiment: High throughput screening of fluorescent fatty acid (FA*) accumulation in differentiating human preadipocytes; type: cell-based
Procedure: Growth medium was changed every three days. […] Cell plates were prewashed with FAB+, and then FA* was added. Cells were incubated with FA* for four hours, and then postwashed with FAB+ to remove unincorporated FA*. Cellular fluorescence of triglyceride droplets that have incorporated FA* was measured on a microplate reader. Efficacy of compounds on inhibiting FA* accumulation was determined by the following calculation: […]

[3] = tested on: primary human subcutaneous preadipocytes; settings: for % Toxicity: Alamar Blue
Procedure: Up to five cell strains of banked primary human subcutaneous preadipocytes were used for high throughput screening. Cells were grown in tissue culture flasks, maintained under standard incubation conditions (5% carbon dioxide, 37° C.) and split evenly when 100% confluent into two new tissue culture flasks (one cell division) in growth medium. Cells were split up to four times to produce enough cells for screening.
Two to five days before the experiment, adhered cells were detached with trypsin/EDTA, combined and seeded into 384-well plates at 100% confluency. On day zero, cells were incubated with […] to induce differentiation of preadipocytes into adipocytes (characterized by cell rounding, formation of triglyceride droplets, etc.). Growth medium was changed every three days. On day six, cells were incubated in triplicate with test compounds (supplied by ComGenex International, Inc., South San Francisco, USA) at various concentrations.
Compounds were first diluted in a phosphate-buffered saline solution with 0.1% fatty-acid free bovine serum albumin (BSA, to aid compound suspension), and then added to cells. Negative control cells were treated with DMSO, the solvent used for initially dissolving compounds, at 0.1% final concentration.
Subsequent determination of compound toxicity was measured by incubating cells with Alamar Blue (an indicator of cellular viability, purchased from BioSource International Inc., Camarillo, Calif., USA) for three to four hours before measuring fluorescence of the reduced compound. Toxicity of compounds was determined by the following calculation:
% Toxicity=100-(sample fluorescence/negative control fluorescence*100)

SMILES | food eaten less than untreated littermates [1] | efficacy ([2]; 10 μM) | Emax at 0.3 µM ([2]; Homo sapiens, FCCP 0.3 uM, inhibition of FA* accumulation, read-out: % Efficacy) | Emax at 1 µM ([2]; Homo sapiens, FCCP 1 uM, inhibition of FA* accumulation, read-out: % Efficacy) | Emax at 3 µM ([2]; Homo sapiens, FCCP 3 uM, inhibition of FA* accumulation, read-out: % Efficacy) | toxicity ([3]; 10 μM) | % Toxicity ([3]; FCCP 0.3 uM) | % Toxicity ([3]; FCCP 1 uM) | % Toxicity ([3]; FCCP 3 uM)
C=C1C(=O)OC(CCCCCCCC)C1C(=O)O (stereo not drawn) [Compound C75] | 90% |  |  |  |  |  |  |  | 
N#CC(C#N)=NNc1ccc(OC(F)(F)F)cc1 [FCCP, Carbonyl cyanide p-(trifluoromethoxy)phenylhydrazone] |  | 100% | 42% | 79% | 90% | 100% | −1% | −4% | 5%
